# Measured values from patent US9833497B2, “Human originated EGF domain proteins and use of the same” (CHENGDU SOURCEBIO LIMITED-LIABILITY COMPANY, priority 2013, dated 2017).
# Columns and labels:
# Assay type in all cases: cell-based
# Moraxella catarrhalis = assay: MIC against Gram-negative bacteria: Moraxella catarrhalis; details: 5×10^5 CFU/mL
# How it was run: (§1)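 Two-fold serial dilutions of each purified human EGF domain protein, three replicate wells per level, were combined with bacteria at a final 5×10^5 CFU/mL in LB. Cultures were shaken at 175 rpm, 37° C. The MIC was taken as the minimum concentration preventing growth.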
# E. coli BL21 = assay: MIC against Gram-negative bacteria: E. coli BL21; details: 5×10^5 CFU/mL
# How it was run: as §1
# Proteus mirabilis = assay: MIC against Gram-negative bacteria: Proteus mirabilis; details: 5×10^5 CFU/mL
# How it was run: as §1
# Aeromonas hydrophila = assay: MIC against Gram-negative bacteria: Aeromonas hydrophila; details: 5×10^5 CFU/mL
# How it was run: as §1
# Proteus vulgaris = assay: MIC against Gram-negative bacteria: Proteus vulgaris; details: 5×10^5 CFU/mL
# How it was run: as §1
# Klebsiella pneumonia = assay: MIC against Gram-negative bacteria: Klebsiella pneumonia; details: 5×10^5 CFU/mL
# How it was run: as §1
# Enterobacter cloacae = assay: MIC against Gram-negative bacteria: Enterobacter cloacae; details: 5×10^5 CFU/mL
# How it was run: as §1
# Citrobacter diversus = assay: MIC against Gram-negative bacteria: Citrobacter diversus; details: 5×10^5 CFU/mL
# How it was run: as §1
# Pseudomonas aeruginosa = assay: MIC against Gram-negative bacteria: Pseudomonas aeruginosa; details: 5×10^5 CFU/mL
# How it was run: as §1
# Serratia marcescens = assay: MIC against Gram-negative bacteria: Serratia marcescens; details: 5×10^5 CFU/mL
# How it was run: as §1
# E. coli DH5α = assay: Antibacterial activity: MIC and growth curve against E. coli DH5α in 96-well plate; details: minimal inhibitory concentration against E. coli DH5α; 96-well plate, 5×10^5 CFU/mL, 37° C., judged after 8 h
# How it was run: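 MIC taken as lowest protein level with no bacterial growth, tracked by A600 every 30 min during 37 °C, 175 rpm culture. Two-fold protein series 50-12.5 μg/mL final, triplicate wells, against 5×10^5 CFU/mL of LB-washed mid-log cells.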
# [1] = 10 h cultivation at 37° C., two-fold serial dilution
# [2] = Moraxella catarrhalis, 96-well plate, 37° C., 10 h
# [3] = E. coli BL21, 96-well plate, 37° C., 10 h
# [4] = Proteus mirabilis, 96-well plate, 37° C., 10 h
# [5] = Aeromonas hydrophila, 96-well plate, 37° C., 10 h
# [6] = Proteus vulgaris, 96-well plate, 37° C., 10 h
# [7] = Klebsiella pneumonia, 96-well plate, 37° C., 10 h
# [8] = Enterobacter cloacae, 96-well plate, 37° C., 10 h
# [9] = Citrobacter diversus, 96-well plate, 37° C., 10 h
# [10] = Pseudomonas aeruginosa, 96-well plate, 37° C., 10 h
# [11] = Serratia marcescens, 96-well plate, 37° C., 10 h
Substance,"MIC M. catarrhalis (Moraxella catarrhalis; 96-well plate, 37° C., 10 h)","MIC E. coli BL21 (E. coli BL21; 96-well plate, 37° C., 10 h)","MIC P. mirabilis (Proteus mirabilis; 96-well plate, 37° C., 10 h)","MIC A. hydrophila (Aeromonas hydrophila; 96-well plate, 37° C., 10 h)","MIC P. vulgaris (Proteus vulgaris; 96-well plate, 37° C., 10 h)","MIC K. pneumonia (Klebsiella pneumonia; 96-well plate, 37° C., 10 h)","MIC E. cloacae (Enterobacter cloacae; 96-well plate, 37° C., 10 h)","MIC C. diversus (Citrobacter diversus; 96-well plate, 37° C., 10 h)","MIC P. aeruginosa (Pseudomonas aeruginosa; 96-well plate, 37° C., 10 h)","MIC S. marcescens (Serratia marcescens; 96-well plate, 37° C., 10 h)",MIC (E. coli DH5α),further results
PRT714 (HINECLSKKVSGCSQDCQDLPVSYKCKCWPGFQLKDDGKTCV; listed as Homo sapiens),50 µg/mL,25 µg/mL,12.5 µg/mL,50 µg/mL,50 µg/mL,12.5 µg/mL,12.5 µg/mL,12.5 µg/mL,12.5 µg/mL,12.5 µg/mL,12.5 µg/mL,
PRT740 (GLNDCMHNNGQCGQLCLAIPGGHRCGCASHYTLDPSSRNCS; listed as Homo sapiens),50 µg/mL,12.5 µg/mL,25 µg/mL,12.5 µg/mL,12.5 µg/mL,12.5 µg/mL,50 µg/mL,12.5 µg/mL,50 µg/mL,25 µg/mL,12.5 µg/mL,
PRT1142 (DVNKCKISPCLDEENCVYRTDGYNCLCAPGYTGINCE; listed as Homo sapiens),,,,,,,,,,,25 µg/mL,MIC M. catarrhalis (Moraxella catarrhalis; [1]): 25 µg/mL; MIC E. coli BL21 (E. coli BL21; [1]): 50 µg/mL; MIC P. mirabilis (Proteus mirabilis; [1]): 12.5 µg/mL; MIC A. hydrophila (Aeromonas hydrophila; [1]): 25 µg/mL; MIC P. vulgaris (Proteus vulgaris; [1]): 25 µg/mL; MIC K. pneumonia (Klebsiella pneumonia; [1]): 12.5 µg/mL; MIC E. cloacae (Enterobacter cloacae; [1]): 25 µg/mL; MIC C. diversus (Citrobacter diversus; [1]): 50 µg/mL; MIC P. aeruginosa (Pseudomonas aeruginosa; [1]): 25 µg/mL; MIC S. marcescens (Serratia marcescens; [1]): 50 µg/mL
PRT645 (EINECTVNPDICGAGHCINLPVRYTCICYEGYRFSEQQ; listed as Homo sapiens),50 µg/mL,25 µg/mL,12.5 µg/mL,25 µg/mL,50 µg/mL,25 µg/mL,50 µg/mL,12.5 µg/mL,12.5 µg/mL,12.5 µg/mL,50 µg/mL,
PRT132 (ISDRCLPNYCEHGGECSQSWSTFHCNCTNTGYRGATCH; listed as Homo sapiens),,,,,,,,,,,25 µg/mL,MIC (μg/mL) M. catarrhalis (Moraxella catarrhalis; [2]): 12.5 µg/mL; MIC (μg/mL) E. coli BL21 (E. coli BL21; [3]): 12.5 µg/mL; MIC (μg/mL) P. mirabilis (Proteus mirabilis; [4]): 25 µg/mL; MIC (μg/mL) A. hydrophila (Aeromonas hydrophila; [5]): 50 µg/mL; MIC (μg/mL) P. vulgaris (Proteus vulgaris; [6]): 50 µg/mL; MIC (μg/mL) K. pneumonia (Klebsiella pneumonia; [7]): 12.5 µg/mL; MIC (μg/mL) E. cloacae (Enterobacter cloacae; [8]): 25 µg/mL; MIC (μg/mL) C. diversus (Citrobacter diversus; [9]): 25 µg/mL; MIC (μg/mL) P. aeruginosa (Pseudomonas aeruginosa; [10]): 12.5 µg/mL; MIC (μg/mL) S. marcescens (Serratia marcescens; [11]): 12.5 µg/mL
PRT1323 (DCIECPGGAGSPCNGRGSCAEGMEGNGTCSCQEGFGGTACE; listed as Homo sapiens),,,,,,,,,,,12.5 µg/mL,MIC against M. catarrhalis (Moraxella catarrhalis; [2]): 12.5 µg/mL; MIC against E. coli BL21 (E. coli BL21; [3]): 25 µg/mL; MIC against P. mirabilis (Proteus mirabilis; [4]): 25 µg/mL; MIC against A. hydrophila (Aeromonas hydrophila; [5]): 12.5 µg/mL; MIC against P. vulgaris (Proteus vulgaris; [6]): 50 µg/mL; MIC against K. pneumonia (Klebsiella pneumonia; [7]): 25 µg/mL; MIC against E. cloacae (Enterobacter cloacae; [8]): 12.5 µg/mL; MIC against C. diversus (Citrobacter diversus; [9]): 50 µg/mL; MIC against P. aeruginosa (Pseudomonas aeruginosa; [10]): 12.5 µg/mL; MIC against S. marcescens (Serratia marcescens; [11]): 12.5 µg/mL
